In general, EC50 refers to the concentration giving half of the maximal effect.

Each structure is given as a SMILES string.

For the first assay, the target named is APJ (Homo sapiens (Human), UniProt P35414). As to the kind of experiment: [35S]GTPγS binding assay on membranes from CHO cells stably expressing human APJ receptor. The class given is biochemical. The note with it: Activity hAPJ SPA EC50 IP (μM). For orientation: GTPγS is a poorly hydrolysed GTP analogue; its binding reports G protein activation.
Sequence of APJ (P35414 whole entry): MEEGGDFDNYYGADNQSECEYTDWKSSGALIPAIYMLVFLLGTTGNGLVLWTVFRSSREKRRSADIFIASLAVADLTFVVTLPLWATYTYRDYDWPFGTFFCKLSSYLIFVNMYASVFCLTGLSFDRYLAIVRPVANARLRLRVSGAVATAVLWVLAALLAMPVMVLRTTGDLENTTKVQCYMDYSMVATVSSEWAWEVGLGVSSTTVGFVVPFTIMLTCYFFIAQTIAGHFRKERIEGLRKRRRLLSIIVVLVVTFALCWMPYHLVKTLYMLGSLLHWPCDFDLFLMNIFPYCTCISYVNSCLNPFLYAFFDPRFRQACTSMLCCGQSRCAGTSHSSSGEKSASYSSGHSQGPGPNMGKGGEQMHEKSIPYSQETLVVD
Method: A GTPγS binding assay was performed on membranes prepared from CHO cells stably expressing human APJ receptor. The optimum experimental conditions for the concentrations of GDP, MgCl2, and NaCl in the assay buffer were initially determined. The assay was performed in assay buffer [20 mM HEPES, pH 7.5, 5 mM MgCl2, and 0.1% (w/v) BSA with 200 mM NaCl, 3 M GDP] and membranes expressing human APJ receptor/well along with WGA PS beads. The reaction was initiated by addition of 0.2 nM [^35S]GTPγS (Perkin Elmer Life and Analytical Sciences, Waltham USA) in the absence or presence of various ligands and incubated at RT for 90 min. Nonspecific binding was determined in the presence of 100 M GTPγS and was always less than 0.2% of total binding.
With `COc1ccnc(OC)c1-n1c(NS(=O)(=O)[C@@H](C)[C@H](OC)c2ccc(Cl)cn2)nnc1-c1cccnc1` (single isomer, unassigned) [Example 715.0, (1R,2S,P)-1-(5-chloro-2-pyridinyl)-N-(4-(2,4-dimethoxy-3-pyridinyl)-5-(3-pyridinyl)-4H-1,2,4-triazol-3-yl)-1-methoxy-2-propanesulfonamide or (1R,2S,M)-1-(5-chloro-2-pyridinyl)-N-(4-(2,4-dimethoxy-3-pyridinyl)-5-(3-pyridinyl)-4H-1,2,4-triazol-3-yl)-1-methoxy-2-propanesulfonamide], the EC50 was 0.00031 µM.
Same read-out and setting: as for `COc1cccc(-c2nnc(NS(=O)(=O)[C@@H](C)[C@H](O)c3ccc(F)cc3)n2-c2c(OC)cccc2OC)n1` (mixture of isomers) [Example 283.0], the figure is 0.00096 µM.
On to `COc1cccc(OC)c1-n1c(NS(=O)(=O)[C@@H](C)[C@H](OC)c2ccc(Cl)cn2)nnc1-c1cccnc1` (mixture of isomers) [Example 529.0, (1S,2R)-1-(5-chloro-2-pyridinyl)-N-(4-(2,6-dimethoxyphenyl)-5-(3-pyridinyl)-4H-1,2,4-triazol-3-yl)-1-methoxy-2-propanesulfonamide and (1R,2S)-1-(5-chloro-2-pyridinyl)-N-(4-(2,6-dimethoxyphenyl)-5-(3-pyridinyl)-4H-1,2,4-triazol-3-yl)-1-methoxy-2-propanesulfonamide], for which the EC50 came to 0.00048 µM.
On the same count and under the same terms, the same measure for `COc1cccc(OC)c1-n1c(NS(=O)(=O)[C@@H](C)Cc2ncc(F)cn2)nnc1-c1cccc(C)n1` (single isomer, unassigned) [Example 619.0, (S)-N-(4-(2,6-dimethoxyphenyl)-5-(6-methylpyridin-2-yl)-4H-1,2,4-triazol-3-yl)-1-(5-fluoropyrimidin-2-yl)propane-2-sulfonamide or (R)-N-(4-(2,6-dimethoxyphenyl)-5-(6-methylpyridin-2-yl)-4H-1,2,4-triazol-3-yl)-1-(5-fluoropyrimidin-2-yl)propane-2-sulfonamide]: 0.0015 µM; for `COc1cnc([C@@H](C)[C@H](C)S(=O)(=O)Nc2nnc(-c3cccc(OC)n3)n2-c2c(F)cccc2F)cn1` [Example 787.0, (2S,3R)-N-(4-(2,6-difluorophenyl)-5-(6-methoxy-2-pyridinyl)-4H-1,2,4-triazol-3-yl)-3-(5-methoxy-2-pyrazinyl)-2-butanesulfonamide]: 0.00053 µM.
Take `COc1cccc(OC)c1-n1c(NS(=O)(=O)[C@@H](C)[C@H](C)c2ncc(C#N)cn2)nnc1-c1cncc(C)c1` [Example 697.0, (2S,3R)-3-(5-cyano-2-pyrimidinyl)-N-(4-(2,6-dimethoxyphenyl)-5-(5-methyl-3-pyridinyl)-4H-1,2,4-triazol-3-yl)-2-butanesulfonamide]: the EC50 was 0.0007 µM.
Same read-out and setting: as for `COc1cccc(OC)c1-n1c(NS(=O)(=O)[C@@H](C)[C@H](C)c2ncc(F)cn2)nnc1-c1cccnc1` (single isomer, unassigned) [Example 183.0, (2R,3S)-N-(4-(2,6-dimethoxyphenyl)-5-(3-pyridinyl)-4H-1,2,4-triazol-3-yl)-3-(5-fluoro-2-pyrimidinyl)-2-butanesulfonamide or (2S,3R)-N-(4-(2,6-dimethoxyphenyl)-5-(3-pyridinyl)-4H-1,2,4-triazol-3-yl)-3-(5-fluoro-2-pyrimidinyl)-2-butanesulfonamide], the figure is 0.06 µM; as for `COc1cccc(-c2nnc(NS(=O)(=O)[C@@H](C)[C@H](O)c3ccc(F)cc3S(C)(=O)=O)n2-c2c(OC)cccc2OC)n1` [Example 288.0], 0.0011 µM.
Same read-out and setting: the same measure for `COc1cccc(OC)c1-n1c(NS(=O)(=O)[C@@H](C)[C@H](OC)c2ncc(-c3ccccc3)cn2)nnc1-c1cncc(C)c1` [Example 428.0, (1R,2S)-N-(4-(2,6-dimethoxyphenyl)-5-(5-methylpyridin-3-yl)-4H-1,2,4-triazol-3-yl)-1-methoxy-1-(5-phenylpyrimidin-2-yl)propane-2-sulfonamide]: 0.0025 µM; for `COc1cccc(-c2nnc(NS(=O)(=O)C[C@H](OC)c3ccc(F)cn3)n2-c2c(OC)cccc2OC)n1` (mixture of isomers) [Example 328.0, (2R)-N-(4-(2,6-dimethoxyphenyl)-5-(6-methoxy-2-pyridinyl)-4H-1,2,4-triazol-3-yl)-2-(5-fluoro-2-pyridinyl)-2-methoxyethanesulfonamide and (2S)-N-(4-(2,6-dimethoxyphenyl)-5-(6-methoxy-2-pyridinyl)-4H-1,2,4-triazol-3-yl)-2-(5-fluoro-2-pyridinyl)-2-methoxyethanesulfonamide]: 0.00033 µM.
In turn, `CC#C[C@@H](O)[C@H](C)S(=O)(=O)Nc1nnc(-c2cncc(C)c2)n1-c1c(OC)cccc1OC` (racemic) [Example 764.0, (2R,3S)-N-(4-(2,6-dimethoxyphenyl)-5-(5-methyl-3-pyridinyl)-4H-1,2,4-triazol-3-yl)-3-hydroxy-4-hexyne-2-sulfonamide and (2S,3R)-N-(4-(2,6-dimethoxyphenyl)-5-(5-methyl-3-pyridinyl)-4H-1,2,4-triazol-3-yl)-3-hydroxy-4-hexyne-2-sulfonamide] came in with a 50% effective concentration (EC50) of 0.027 µM.

The same assay, now with this note: read-out: Activity hAPJ SPA EC50 IP.
Regarding `COc1cccc(OC)c1-n1c(NS(=O)(=O)[C@@H](C)Cc2ncc(F)cn2)nnc1-c1cnccc1C` (mixture of isomers) [Example 216.0, (2S)-N-(4-(2,6-dimethoxyphenyl)-5-(4-methyl-3-pyridinyl)-4H-1,2,4-triazol-3-yl)-1-(5-fluoro-2-pyrimidinyl)-2-propanesulfonamide and (2R)-N-(4-(2,6-dimethoxyphenyl)-5-(4-methyl-3-pyridinyl)-4H-1,2,4-triazol-3-yl)-1-(5-fluoro-2-pyrimidinyl)-2-propanesulfonamide], the EC50 came to 0.57 µM.
As for `CCO[C@@H](c1cnc(C)cn1)[C@@H](C)S(=O)(=O)Nc1nnc(-c2cccc(OC)n2)n1-c1c(OC)cccc1OC` (single isomer, unassigned) [Example 589.0, (1S,2R)-N-(4-(2,6-dimethoxyphenyl)-5-(6-methoxy-2-pyridinyl)-4H-1,2,4-triazol-3-yl)-1-ethoxy-1-(5-methyl-2-pyrazinyl)-2-propanesulfonamide or (1R,2S)-N-(4-(2,6-dimethoxyphenyl)-5-(6-methoxy-2-pyridinyl)-4H-1,2,4-triazol-3-yl)-1-ethoxy-1-(5-methyl-2-pyrazinyl)-2-propanesulfonamide], the EC50 was 0.02 µM.
Still for that read-out and setting: the same measure for `COc1cccc(-c2nnc(NS(=O)(=O)[C@H](C)[C@@H](O)c3cn(C)cn3)n2-c2c(OC)cccc2OC)n1` (mixture of isomers) [Example 258.0, (1S,2R)-N-(4-(2,6-dimethoxyphenyl)-5-(6-methoxypyridin-2-yl)-4H-1,2,4-triazol-3-yl)-1-hydroxy-1-(1-methyl-1H-imidazol-4-yl)propane-2-sulfonamide and (1R,2S)-N-(4-(2,6-dimethoxyphenyl)-5-(6-methoxypyridin-2-yl)-4H-1,2,4-triazol-3-yl)-1-hydroxy-1-(1-methyl-1H-imidazol-4-yl)propane-2-sulfonamide]: 0.002 µM; for `COc1cccc(-c2nnc(NS(=O)(=O)[C@@H]3CCCO[C@@H]3c3ncc(C)cn3)n2-c2c(OC)cccc2OC)n1` (single isomer, unassigned) [Example 657.0]: 0.014 µM.
Consider `COc1cccc(OC)c1-n1c(NS(=O)(=O)[C@@H](C)[C@@H](OC(C)C)c2ncc(C)cn2)nnc1-c1cccnc1` (stereo in doubt) [Example 625.0], for which the EC50 came to 0.11 µM.
With `COc1cccc(-c2nnc(NS(=O)(=O)[C@H](C)[C@H](O)c3cn(C)cn3)n2-c2c(OC)cccc2OC)n1` (mixture of isomers) [Example 259.0, (1R,2R)-N-(4-(2,6-dimethoxyphenyl)-5-(6-methoxypyridin-2-yl)-4H-1,2,4-triazol-3-yl)-1-hydroxy-1-(1-methyl-1H-imidazol-4-yl)propane-2-sulfonamide and (1S,2S)-N-(4-(2,6-dimethoxyphenyl)-5-(6-methoxypyridin-2-yl)-4H-1,2,4-triazol-3-yl)-1-hydroxy-1-(1-methyl-1H-imidazol-4-yl)propane-2-sulfonamide], the concentration giving a half-maximal response (EC50) was 0.011 µM.
As to `COc1cccc(OC)c1-n1c(NS(=O)(=O)[C@@H]2CCCO[C@@H]2c2ncc(C)cn2)nnc1-c1cncc(C)c1` (single isomer, unassigned) [Example 643.0], the EC50 stood at 0.15 µM.
For `COc1cccc(OC)c1-n1c(NS(=O)(=O)[C@@H](C)[C@H](OC)c2ncc(C)o2)nnc1-c1cncc(C)c1` (single isomer, unassigned) [Example 632.0, (1S,2R)-N-(4-(2,6-dimethoxyphenyl)-5-(5-methylpyridin-3-yl)-4H-1,2,4-triazol-3-yl)-1-methoxy-1-(5-methyloxazol-2-yl)propane-2-sulfonamide or (1R,2S)-N-(4-(2,6-dimethoxyphenyl)-5-(5-methylpyridin-3-yl)-4H-1,2,4-triazol-3-yl)-1-methoxy-1-(5-methyloxazol-2-yl)propane-2-sulfonamide], the concentration giving a half-maximal response (EC50) worked out at 0.21 µM.
On the same count and under the same terms, as for `COc1cccc(-c2nnc(NS(=O)(=O)[C@H](C)[C@@H](O)c3cn4ccccc4n3)n2-c2c(OC)cccc2OC)n1` (mixture of isomers) [Example 256.0, (1S,2R)-N-(4-(2,6-dimethoxyphenyl)-5-(6-methoxypyridin-2-yl)-4H-1,2,4-triazol-3-yl)-1-hydroxy-1-(imidazo[1,2-a]pyridin-2-yl)propane-2-sulfonamide and (1R,2S)-N-(4-(2,6-dimethoxyphenyl)-5-(6-methoxypyridin-2-yl)-4H-1,2,4-triazol-3-yl)-1-hydroxy-1-(imidazo[1,2-a]pyridin-2-yl)propane-2-sulfonamide], the figure is 0.0004 µM; as for `COc1cccc(OC)c1-n1c(NS(=O)(=O)[C@@H](C)Cc2ncc(F)cn2)nnc1-c1cncc(Cl)c1` (mixture of isomers) [Example 219.0, (2S)-N-(5-(5-chloro-3-pyridinyl)-4-(2,6-dimethoxyphenyl)-4H-1,2,4-triazol-3-yl)-1-(5-fluoro-2-pyrimidinyl)-2-propanesulfonamide and (2R)-N-(5-(5-chloro-3-pyridinyl)-4-(2,6-dimethoxyphenyl)-4H-1,2,4-triazol-3-yl)-1-(5-fluoro-2-pyrimidinyl)-2-propanesulfonamide], 0.0085 µM.
